# Test results: patent US9079821B2, “Quinone based nitric oxide donating compounds” (NICOX S.A., priority 2011, dated 2015)
# What was measured:
# [1] = test system: NADPH-induced lipidic peroxidation of membrane lipids (hepatic microsomal membranes); experiment: In vitro antioxidant activity (TBARS test), Method A (ADP-FeCl3 and NADPH); type: biochemical, rat; conditions: inhibition of TBARS production after 30 min incubation, read-out: Antioxidant activity IC50 μM (CL 95%)
# Protocol: The antioxidant properties of compounds (6) (disclosed in example 1) and compound (23) (disclosed in example 19) and reference antioxidant compounds were assessed after NADPH-induced lipidic peroxidation of membrane lipids in rat hepatocytes using the detection of 2-thiobarbituric acid reactive substances (TBARS) by visible spectroscopy.
# Hepatic microsomal membranes from male Wistar rats (200-250 g) were prepared by differential centrifugation (8000 g, 20 min; 120000 g, 1 h) in a HEPES/sucrose buffer (10 mM, 250 mM, pH 7.4) and stored at −80° C. Incubation was performed at 37° C. in a Tris-HCl/KCl (100 mM/150 mM, pH 7.4) containing microsomal membranes (2 mg prot/mL), sodium ascorbate (100 μM), and DMSO solutions of the tested compounds. Lipid peroxidation was initiated by adding ADP-FeCl3 and NADPH (Method A) or 2.5 μM FeSO4 (Method B) (as described by Boschi D. et al., J. Med. Chem. 2006, 49:2886-2897). Aliquots were taken from the incubation mixture at 5, 15, and 30 min and treated with trichloroacetic acid (TCA) 10% w/v. Lipid peroxidation was assessed by spectrophotometric (543 nm) determination of the TBARS consisting mainly of malondialdehyde (MDA). TBARS concentrations (expressed in nmol/mg protein) were obtained by interpolation with a MDA standard curve. The antioxidant activity of tested compounds was evaluated as the percent inhibition of TBARS production with respect to control samples, using the values obtained after 30 min of incubation. IC50 values were calculated by nonlinear regression analysis.
# [2] = test system: rat L-NAME-induced hypertension; experiment: Rat L-NAME-induced hypertension, systolic blood pressure after single oral dose; type: in vivo; conditions: for Delta vs basal (mmHg): Comp. (6) 100 mg/kg oral, L-NAME 50 mg/kg i.p.
# Protocol: To assess the in vivo NO-dependent activity, Compound (6) was evaluated for systolic blood pressure (SBP) reduction efficacy in a rat model of NO-deprivation induced by L-NAME and compared with 5-ISMN.
# Fasted male SD rats (250-300 g, n=3-5 per group), obtained from Harlan Italy (Correzzana, Milan, Italy) were orally treated with tested compounds or vehicle (DMSO:Methocel 1% 2/98 v/v) in a total volume of 4 ml/kg by gavage. At each time point (1, 3, 6 and 24 h) animals were deeply anesthetized with Zoletil® 100 (3 mg/kg), given intramuscularly. Thereafter, a pressure catheter (Samba Sensors, Harvard Apparatus, UK) was introduced into the common carotid artery for central blood pressure measurement. Pressure transducer was connected to a personal computer, in order to allow real time monitor of the pressure tracing. After 10 minutes of basal recording, L-NAME (50 mg/kg) was administered intraperitoneally and the effect on SBP monitored. When the SBP stabilized (5 minutes without variations) the recording was stopped. To further confirm that functional activity was NO-dependent, at each time point blood ^15N-nitrite levels were measured following the procedure described in Example 12.
# mdx mice = experiment: Mouse model of Duchenne Muscle Distrophy (whole body tension in mdx mice); type: in vivo; conditions: for WBT5: average of top 5 FPTs divided by body weight; for WBT10: average of top 10 FPTs divided by body weight
# Protocol: The effects of the compound (6) on muscle function were assessed in mdx mice, which are genetically and biochemically homologous to human DMD. Animals of 4 weeks of age were treated for 3 months with the compound (6) at two different doses (30 and 100 mg/kg), which was incorporated into the diet. Control mdx and wild-type mice were fed the same diet without any drug. To determine if treatment with the compound would ameliorate muscle function in mdx mice, we evaluated the whole body tension which is a measure of the total muscle force. Indeed, this assay, well described in the Treat-NMD standard procedures for the preclinical studies in DMD, is used to determine the ability of mice to exert tension in a pulling maneuver that is elicited by stroking the tail. It is thought to reflect the maximal acute phasic force of the mouse can achieve to escape a potentially harmful event. Briefly, each mouse was placed at the entry of a polyvinyl chloride tube that had been lined interiorly with an aluminum screen, and the tail of the mouse was connected to a tension transducer. Forward pulling movements were elicited by a standardized stroke of the tail with serrated forceps and the corresponding forward pulling tensions (FPTs) were recorded using a Biopac recording system. Between 15 and 20 FPTs were generally recorded during each session. The whole body tension 5 (WBT5) and WBT10 were obtained by dividing the average of the top 5 or top 10 FPTs, respectively, by the body weight.
# Table.1 Whole Body Tension (WBT) measured in wild-type and mdx control mice and in mdx mice treated with two different doses of NCX 1443 (30 and 100 mg/kg) incorporated in the diet. Data are presented as mean±standard deviation. For each group, n=8-10 mice. *p<0.05 vs mdx vehicle, ^###p<0.001 vs wild-type (wt) mice, 1-way ANOVA followed by Tuckey post-hoc test.
# [3] = 30 mg/kg/day in the diet for 3 months
# [4] = 100 mg/kg/day in the diet for 3 months
compound,measurement,setting,value
"COC1=C(OC)C(=O)C(CCCCCCCCCCO[N+](=O)[O-])=C(C)C1=O [Compound (6), 10-(4,5-dimethoxy-2-methyl-3,6-dioxocyclohexa-1,4-dienyl)decyl nitrate]",IC50,[1],2 µM
same,Delta vs basal (mmHg),[2]; 1 hour,53.5 ± 4.5 mmHg
same,Delta vs basal (mmHg),[2]; 3 hours,14 ± 3.8 mmHg
same,Delta vs basal (mmHg),[2]; 6 hours,38 ± 3.6 mmHg
same,Delta vs basal (mmHg),[2]; 24 hours,67.7 ± 16.8 mmHg
same,time over which L-NAME induced SBP increase was prevented after treatment,"[2]; Compound (6) 100 mg/kg, single oral administration",6 h
same,WBT5,mdx mice; [3],3.6 ± 0.7^###
same,WBT10,mdx mice; [3],3.0 ± 0.7^###
same,WBT5,mdx mice; [4],4.1 ± 0.8^###*
same,WBT10,mdx mice; [4],3.4 ± 0.6^###*
same,"effect on muscle function, in words",mdx mice; 30 and 100 mg/kg in the diet for 3 months,showed a dose-response trend in improving muscle function reaching a significant effect at the dose of 100 mg/kg
